From ChEMBL document CHEMBL1155731, “Montipyridine, a new pyridinium alkaloid from the stony coral montipora species” (2001)

Tests used:
Format in all cases: functional
Settings in all cases: read-out: ED50 (the source's name)
A549 = experiment: Cytotoxicity against human A549 cells
SK-OV-3 = experiment: Cytotoxicity against human SKOV3 cells
SK-MEL-2 = experiment: Cytotoxicity against human SK-MEL-2 cells
XF498 = experiment: Cytotoxicity against human XF498 cells
HCT-15 = experiment: Cytotoxicity against human HCT15 cells

Measured: EC50

C=CCCCCCCCc1cc(OC)cc[n+]1CC(=O)[O-] [MONTIPYRIDINE]
> 30 µg/mL: A549 | SK-OV-3 | SK-MEL-2 | XF498 | HCT-15
